In patent US20250034171A1, “IMIDAZOPYRIDINE AMIDES AND RELATED COMPOUNDS FOR USE IN THE TREATMENT OF BACTERIAL INFECTIONS” (priority 2021, published 2025):
Converted amounts (≈) assume the structure as drawn. Where two headings read alike, the source gives them in different places.

Columns and labels:
[1] = HTChem stab assay (chemical stability in buffer pH2, pH4 and pH7 vs DMSO reference); assay type: physicochemical
Description: HTChem stab assay was used to assess the chemical stability of the compounds. 72 h stirring at rt in a buffer pH2, pH4 and pH7 vs a reference DMSO solution. HTChem stab assay is based on the handbook of Pharmaceutical Stress Testing, Predicting Drug Degradation, second edition, authors Baertschi, Alsante, Reed ISBN 978-143980179-6.
Compounds were plated (1 μl 10 mM DMSO stock in 96 well plate (DMSO control+3 pH conditions), one plate per condition).
200 μL of respectively DMSO, Buffer/DMSO mix pH2, Buffer/DMSO mix pH4 and Buffer/DMSO mix pH7 was added.
After 72 h shaking (300 rpm) at room temperature the samples were analysed by LC/UV/MS. Chromatograms of samples (stability conditions) were compared with the chromatograms of control sample (DMSO). Extra peaks were flagged and identified by mass spectrometry. Sample purity (reference included) were reported.
• pH3 buffer: For 11; weigh 4.14 g NaH2PO4·H2O, add 600 ml H2O, add H3PO4 to pH3, add H2O to 1000 ml. Filter over 0.2 μm and store at 4° C. Expires after 30 days. • pH6 buffer: For 1 l; weigh 4.14 g NaH2PO4·H2O, add 600 ml H2O, add 1N NaOH to pH6, add H2O to 1000 ml. Filter over […] and store at 4° C. Expires after 30 days.
• pH2 Buffer/DMSO (StabSolvent): mix 2 parts of HCl 0.1N with 1 part of DMSO • pH4 Buffer/DMSO (StabSolvent): mix 2 parts of buffer pH3 with 1 part of DMSO • pH7 Buffer/DMSO (StabSolvent): mix 2 parts of buffer pH6 with 1 part of DMSO measure pH prior to use.
Instrument: Acquity UPLC; Column: Acquity HSS T3, 50 mm length×2.1 mm i.d., 1.8 μm particle size. Detectors: PDA (250-350 nm) and SQD2 (90-1500m/z). Mobile phase A: 0.1% Formic acid in water; Mobile phase B: 0.1% Formic acid in Acetonitrile.
Injection volume: 5 μL, flow rate 0.6 mL/min.
Data processing including peak integration and identification was done with Waters OpenLynx software.

[2] = tested on: Mycobacterium tuberculosis strain H37Rv; experiment: Test 2: MIC determination against M. tuberculosis, resazurin fluorescence; assay type: cell-based; conditions: Test 2, M. tuberculosis H37Rv; for MIC90: read-out: Bacterial activity MIC90; for IC50: read-out: Bacterial activity pMIC50 (converted)
[3] = tested on: Salmonella typhimurium Ames II Mixed Strains (TA7001-TA7006) and TA98; experiment: Genotoxicity assay (AmesIIb mutagenicity test); assay type: cell-based; note: key: an AmesIIb score of 1 shows no genotoxicity signals
Text: The aim is to evaluate compounds (and/or their metabolites) for their ability to induce reverse mutations in a gene of histidine-requiring Salmonella typhimurium strains to produce histidine-independent strains of these bacteria, in the absence and in the presence of a mammalian metabolic activation system.
Point mutations were made in the histidine (His) operon in Salmonella typhimurium, rendering the bacteria incapable of producing histidine. These single base substitutions are positioned at strategic points within the His gene, resulting in his-organisms that cannot grow unless histidine is supplied. When a mutagenic event occurs, base substitutions within the His gene then cause the reversion of the his-Ames II™ strains to His.
A chemical's mutagenic potential is assessed by exposing these his-organisms to varying concentrations of chemical and selecting for the reversion event. Medium lacking histidine is used for this selection which allows only those cells that have undergone the his- to His reversion to survive and grow.
The assay may be performed using a kit and instructions from Xenometric. The two strains provided in the Xenometric kit are the Ames II™ Mixed Strains and TA98. The Ames II™ Mixed Strains contains an equimolar mixture of the Ames II™ TA7001-TA7006 strains. Individually, these strains are designed to revert by only one specific base-pair substitution out of six possible changes. Thus, when mixed, all six base substitution mutations can be represented in one culture. This kit also contains TA98 for the detection of frameshift mutations.

[4] = Metabolic stability in liver microsomes (intrinsic clearance); assay type: in vitro ADME
Procedure, shortened: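 Parent-compound loss, followed by LC-MS/MS peak area versus t=0, was tracked over 0, 5, 10, 20, 40 and 60 min in NADPH-initiated (1 mM) microsomal incubations: 0.5 mg/ml protein, pH 7.4 phosphate, 1 mM MgCl2, 37° C, substrate typically 1 μM. Half-life from regression gave intrinsic clearance per mg protein.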

[5] = buffer pH2/DMSO, 72 h stirring at rt
[6] = buffer pH4/DMSO, 72 h stirring at rt
[7] = buffer pH7/DMSO, 72 h stirring at rt
[8] = reference DMSO solution, 72 h stirring at rt
[9] = mouse, microsomes, 1 µM, pH 7.4
[10] = Mycobacterium tuberculosis, H37RV
[11] = mouse, microsomes, pH 7.4, Metabolic Stability Half life (mouse, min.)
[12] = mouse, microsomes, pH 7.4, mouse liver microsomes, read-out: Metabolic Stability (liver microsome intrinsic clearance) Clearance (mouse, μl/min./mg protein)

Row | SMILES | Chemical stability data, Buffer pH2 [1, 5] [%] | Chemical stability data, Buffer pH4 [1, 6] [%] | Chemical stability data, Buffer pH7 [1, 7] [%] | Chemical stability data, Vehicle DMSO [1, 8] [%] | Bacterial activity pMIC50 [2] | MIC90 [2] [µM] | GeneTox AmesIIb Score [3] | Metabolic Stability (liver microsome intrinsic clearance) Clearance (mouse, μl/min./mg protein) ([4]; mouse liver microsomes) [μl/min./mg protein] | Metabolic Stability Half life (mouse, min.) ([4]; mouse liver microsomes) [h] | Chemical stability data, Vehicle DMSO ([1]; 72 h, 50 µM) [%] | Chemical stability data, Buffer pH2 ([1]; 72 h, 50 µM, pH 2) [%] | Chemical stability data, Buffer pH4 ([1]; 72 h, 50 µM, pH 4) [%] | Chemical stability data, Buffer pH7 ([1]; 72 h, 50 µM, pH 7) [%] | GeneTox AmesIIb Score ([3]; Salmonella typhimurium) | MIC90 [2, 10] [µM] | IC50 [2, 10] [pM] | half-life at 1 µM [4, 11] [h] | microsomal CLint at 1 µM [4, 12] [µL/min/mg] | other results
1 | CCc1nc2n(c1C(=O)NCc1ccc(-c3nc4n(n3)CCC(C(F)(F)F)C4)cc1)CCCC2 (racemic) [Compound 13ab] | 100 | 100 | 100 | 100 | 8.067 | 0.024 (≈ 0.0113 µg/mL) | 1 | 15.5 | 1.49 | – | – | – | – | – | – | – | – | – | –
2 | O=C(NCc1ccc(-c2nc3n(n2)CCC(C(F)(F)F)C3)cc1)c1c(C(F)F)nc2ccccn12 (racemic) [Compound 14ab] | 100 | 100 | 100 | 100 | 7.877 | 0.036 (≈ 0.0177 µg/mL) | 1 | <7.7 | >3 | – | – | – | – | – | – | – | – | – | –
3 | CCc1nc2ncccn2c1C(=O)NCc1ccc(-c2nc3n(n2)CCC(C(F)(F)F)C3)cc1 (racemic) [Compound 17ab] | 100 | 97 | 100 | 100 | 7.526 | 0.105 (≈ 0.0493 µg/mL) | 1 | <7.7 | >3 | – | – | – | – | – | – | – | – | – | –
4 | O=C(NCc1ccc(-c2cn3c(n2)CC(C(F)(F)F)CC3)cc1)c1c(C(F)(F)F)nc2ccccn12 (racemic) [Compound 18ab] | 98 | 100 | 100 | 98 | 7.431 | 0.142 (≈ 0.0721 µg/mL) | 1 | 11.1 | 2.08 | – | – | – | – | – | – | – | – | – | –
5 | CCc1nc2ncc(C)cn2c1C(=O)NCc1ccc(-c2cn3c(n2)CC(C(F)(F)F)CC3)cc1 (single isomer, unassigned) [Compound 3a] | – | – | – | – | 8.532 | 0.008 (≈ 0.00386 µg/mL) | – | 7.78 | – | 100 | 100 | 100 | 100 | 1 | – | – | – | – | Metabolic Stability (liver microsome intrinsic clearance) Clearance (human, μl/min./mg protein) ([4]; human liver microsomes): 13.4 μl/min./mg protein; Metabolic Stability Half life (human, min.) ([4]; human, microsomes, 1 µM, pH 7.4): 1.72 h; Metabolic Stability Half life (mouse, min.) [4, 9]: 2.97 h
6 | CCc1nc2nc(C)ccn2c1C(=O)NCc1ccc(-c2nc3n(n2)CCC(C(F)(F)F)C3)cc1 (single isomer, unassigned) [Compound 5a] | – | – | – | – | – | – | – | – | – | 100 | 100 | 100 | 100 | 1 | 0.06 (≈ 0.029 µg/mL) | 21600 | > 3 | < 7.7 | –
7 | CCc1nc2ncc(Cl)cn2c1C(=O)NCc1ccc(-c2nc3n(n2)CCC(C(F)(F)F)C3)cc1 (single isomer, unassigned) [Compound 10a] | – | – | – | – | <6.301 | – | – | – | – | 100 | 84 | 76 | 97 | 1 | – | – | > 3 | < 7.7 | –
8 | CCc1nc2ncc(Cl)cn2c1C(=O)NCc1ccc(-c2nc3n(n2)CCC(C(F)(F)F)C3)cc1 (single isomer, unassigned) [Compound 10b] | – | – | – | – | 8.207 | – | – | 11.1 | – | 96 | 81 | 71 | 92 | 1 | 0.021 (≈ 0.0106 µg/mL) | – | – | – | Metabolic Stability Half life (mouse, min.) [4, 9]: 2.08 h
9 | CCc1nc2ncc(C)cn2c1C(=O)NCc1ccc(-c2nc3n(n2)CCC(C(F)(F)F)C3)cc1 (stereo not shown) [Compound 1ab] | – | – | – | – | – | – | – | – | – | 100 | 100 | 100 | 100 | 1 | 0.028 (≈ 0.0135 µg/mL) | 9550 | > 3 | < 7.7 | half-life at 1 µM ([4]; human, microsomes, pH 7.4, Metabolic Stability Half life (human, min.)): > 3 h; microsomal CLint at 1 µM ([4]; human, microsomes, pH 7.4, human liver microsomes, read-out: Metabolic Stability (liver microsome intrinsic clearance) Clearance (human, μl/min./mg protein)): < 7.7 µL/min/mg
10 | Cc1cnc2nc(C3CC3)c(C(=O)NCc3ccc(-c4nc5n(n4)CCC(C(F)(F)F)C5)cc3)n2c1 (stereo not shown) [Compound 8ab] | – | – | – | – | – | – | – | – | – | 100 | 100 | 100 | 100 | 1 | 0.018 (≈ 0.00892 µg/mL) | 7110 | – | – | –
